For two molecules, melting point results are on record in patent publication US20050234125A1, “Alpha-sulfonylamino-acetonitriles” (priority 2002, published 2005).

For orientation: melting point means the temperature of the solid-liquid transition.

The structures appear in SMILES notation.

As for `CC(C#N)(COc1ccc(Cl)cc1)S(=O)(=O)Cc1ccc(Cl)cc1` (centres unmarked), the melting point was in the range of 119 to 120 °C. As for `CC(C#N)(COc1ccc(Cl)cc1)NS(=O)(=O)Cc1ccccc1` (centres unmarked), the melting point lay within 120 to 121 °C.
